# Experimental data: patent US20260232767A1, “INTERLEUKIN-23 RECEPTOR ANTAGONIST PEPTIDES FOR USE IN THE TREATMENT OF PSORIASIS” (Janssen Pharmaceutica NV, priority 2023, published 2026)
# System: subjects with moderate-to-severe plaque psoriasis
# Assay: Safety, adverse events, Example 2 through Week 56
# Type: in vivo, human
# Excerpt: The LTE safety analysis was based on randomized participants in Example who entered the present long-term extension study and received at least one dose of study intervention (including a partial dose) during the study period.
# [1] = 100 mg QD, Week 16 through Week 56
# [2] = 100 mg QD, LTE Safety analysis set
smiles,measurement,setting,value
"CC(=O)NCCCC[C@@H]1NC(=O)[C@H](Cc2c[nH]c3c(C)cccc23)NC(=O)[C@H]([C@@H](C)O)NC(=O)[C@H](CC(N)=O)NC(=O)[C@@H](NC(C)=O)C(C)(C)SSC(C)(C)[C@@H](C(=O)N[C@@H](Cc2ccc(OCCN)cc2)C(=O)N[C@@H](Cc2ccc3ccccc3c2)C(=O)NC2(C(=O)N[C@@H](CCC(=O)O)C(=O)N[C@@H](CC(N)=O)C(=O)N[C@@H](Cc3cccnc3)C(=O)N(C)CC(N)=O)CCOCC2)NC1=O [IL-23 receptor antagonist peptide, Ac-[Pen]*-N-T-[W(7-Me)]-[Lys(Ac)]-[Pen]*-Phe[4-(2-aminoethoxy)]-[2-Nal]-[THP]-E-N-[3-Pal]-Sarc-NH2 (*[Pen]-[Pen]* formdisulfidebond)]",Rhinorrhoea: % of subjects,"100 mg BID, through Week 56",(2.4%)
same,Rhinorrhoea: number of subjects,"100 mg BID, through Week 56",1
same,Seasonal allergy: % of subjects,"100 mg BID, through Week 56",(2.4%)
same,Seasonal allergy: number of subjects,"100 mg BID, through Week 56",1
same,Skin and subcutaneous tissue disorders: % of subjects,"100 mg BID, through Week 56",(7.1%)
same,Skin and subcutaneous tissue disorders: number of subjects,"100 mg BID, through Week 56",3
same,Skin laceration: number of subjects,"100 mg BID, through Week 56",0
same,Skin papilloma: % of subjects,"100 mg BID, through Week 56",(2.4%)
same,Skin papilloma: number of subjects,"100 mg BID, through Week 56",1
same,Social circumstances: number of subjects,"100 mg BID, through Week 56",0
same,Steatohepatitis: number of subjects,"100 mg BID, through Week 56",0
same,Subjects with AE leading to discontinuation: Abdominal pain,"100 mg BID, through Week 56",0
same,Subjects with AE leading to discontinuation: Alanine aminotransferase increased,"100 mg BID, through Week 56",0
same,Subjects with AE leading to discontinuation: Aspartate aminotransferase increased,"100 mg BID, through Week 56",0
same,Subjects with AE leading to discontinuation: Asthenia,"100 mg BID, through Week 56",0
same,Subjects with AE leading to discontinuation: Chills,"100 mg BID, through Week 56",0
same,Subjects with AE leading to discontinuation: Ear and labyrinth disorders,"100 mg BID, through Week 56",0
same,Subjects with AE leading to discontinuation: Gamma-glutamyltransferase increased,"100 mg BID, through Week 56",0
same,Subjects with AE leading to discontinuation: General disorders and administration site conditions,"100 mg BID, through Week 56",0
same,Subjects with AE leading to discontinuation: Headache,"100 mg BID, through Week 56",0
same,Subjects with AE leading to discontinuation: Insomnia,"100 mg BID, through Week 56",0
same,Subjects with AE leading to discontinuation: Investigations,"100 mg BID, through Week 56",0
same,Subjects with AE leading to discontinuation: Nausea,"100 mg BID, through Week 56",0
same,Subjects with AE leading to discontinuation: Nervous system disorders,"100 mg BID, through Week 56",0
same,Subjects with AE leading to discontinuation: Proctalgia,"100 mg BID, through Week 56",0
same,Subjects with AE leading to discontinuation: Psoriasis,"100 mg BID, through Week 56",0
same,Subjects with AE leading to discontinuation: Psychiatric disorders,"100 mg BID, through Week 56",0
same,Subjects with AE leading to discontinuation: Skin and subcutaneous tissue disorders,"100 mg BID, through Week 56",0
same,Subjects with AE leading to discontinuation: Suicide attempt,"100 mg BID, through Week 56",0
same,Subjects with AE leading to discontinuation: Transaminases increased,"100 mg BID, through Week 56",0
same,Subjects with AE leading to discontinuation: Vertigo,"100 mg BID, through Week 56",0
same,Subjects with AE leading to discontinuation: Vomiting,"100 mg BID, through Week 56",0
same,Subjects with AE leading to discontinuation: Weight increased,"100 mg BID, through Week 56",0
same,Subjects with treatment-emergent AE: Bronchitis,"100 mg BID, through Week 56",0
same,Subjects with treatment-emergent AE: Gastrointestinal disorders,"100 mg BID, through Week 56",7
same,Subjects with treatment-emergent AE: Nasopharyngitis,"100 mg BID, through Week 56",5
same,Subjects with treatment-emergent serious AE: COVID-19,"100 mg BID, through Week 56",0
same,Subjects with treatment-emergent serious AE: Cardiac disorders,"100 mg BID, through Week 56",0
same,Subjects with treatment-emergent serious AE: Cerebrovascular accident,"100 mg BID, through Week 56",0
same,Subjects with treatment-emergent serious AE: Coronary artery disease,"100 mg BID, through Week 56",0
same,Subjects with treatment-emergent serious AE: Diverticulitis,"100 mg BID, through Week 56",0
same,Subjects with treatment-emergent serious AE: Foot deformity,"100 mg BID, through Week 56",0
same,Subjects with treatment-emergent serious AE: General disorders and administration site conditions,"100 mg BID, through Week 56",0
same,Subjects with treatment-emergent serious AE: Infected cyst,"100 mg BID, through Week 56",0
same,Subjects with treatment-emergent serious AE: Infections and infestations,"100 mg BID, through Week 56",0
same,"Subjects with treatment-emergent serious AE: Injury, poisoning and procedural complications","100 mg BID, through Week 56",0
same,Subjects with treatment-emergent serious AE: Intervertebral disc protrusion,"100 mg BID, through Week 56",0
same,Subjects with treatment-emergent serious AE: Ligament injury,"100 mg BID, through Week 56",0
same,Subjects with treatment-emergent serious AE: Musculoskeletal and connective tissue disorders,"100 mg BID, through Week 56",0
same,Subjects with treatment-emergent serious AE: Nervous system disorders,"100 mg BID, through Week 56",0
same,Subjects with treatment-emergent serious AE: Non-cardiac chest pain,"100 mg BID, through Week 56",0
same,Subjects with treatment-emergent serious AE: Psychiatric disorders,"100 mg BID, through Week 56",0
same,"Subjects with treatment-emergent serious AE: Respiratory, thoracic and mediastinal disorders","100 mg BID, through Week 56",0
same,Subjects with treatment-emergent serious AE: Suicide attempt,"100 mg BID, through Week 56",0
same,Subjects with treatment-emergent serious AE: Tonsillar hypertrophy,"100 mg BID, through Week 56",0
same,Subjects with treatment-emergent serious AE: Ventricular dysfunction,"100 mg BID, through Week 56",0
same,Suicide attempt: number of subjects,"100 mg BID, through Week 56",0
same,Sunburn: number of subjects,"100 mg BID, through Week 56",0
same,Thrombocytopenia: number of subjects,"100 mg BID, through Week 56",0
same,Thrombocytosis: % of subjects,"100 mg BID, through Week 56",(2.4%)
same,Thrombocytosis: number of subjects,"100 mg BID, through Week 56",1
same,Tonsillar hypertrophy: number of subjects,"100 mg BID, through Week 56",0
same,Tooth fracture: % of subjects,"100 mg BID, through Week 56",(2.4%)
same,Tooth fracture: number of subjects,"100 mg BID, through Week 56",1
same,Type 2 diabetes mellitus: % of subjects,"100 mg BID, through Week 56",(2.4%)
same,Type 2 diabetes mellitus: number of subjects,"100 mg BID, through Week 56",1
same,Urinary tract disorder: % of subjects,"100 mg BID, through Week 56",(2.4%)
same,Urinary tract disorder: number of subjects,"100 mg BID, through Week 56",1
same,Uterine leiomyoma: % of subjects,"100 mg BID, through Week 56",(2.4%)
same,Uterine leiomyoma: number of subjects,"100 mg BID, through Week 56",1
same,Vascular disorders: % of subjects,"100 mg BID, through Week 56",(4.8%)
same,Vascular disorders: number of subjects,"100 mg BID, through Week 56",2
same,Ventricular dysfunction: number of subjects,"100 mg BID, through Week 56",0
same,Vertigo: number of subjects,"100 mg BID, through Week 56",0
same,Vitamin D deficiency: number of subjects,"100 mg BID, through Week 56",0
same,Number of subjects with treatment-emergent AE: Cholelithiasis,[1],1
same,Number of subjects with treatment-emergent AE: Ear and labyrinth disorders,[1],1
same,Number of subjects with treatment-emergent AE: Endocrine disorders,[1],0
same,Number of subjects with treatment-emergent AE: Eye disorders,[1],0
same,Number of subjects with treatment-emergent AE: Eyelid skin dryness,[1],0
same,Number of subjects with treatment-emergent AE: Goiter,[1],0
same,Number of subjects with treatment-emergent AE: Hepatobiliary disorders,[1],1
same,Number of subjects with treatment-emergent AE: Hypertransaminasemia,[1],0
same,Number of subjects with treatment-emergent AE: Immune system disorders,[1],0
same,Number of subjects with treatment-emergent AE: Insomnia,[1],0
same,Number of subjects with treatment-emergent AE: Ocular cyst,[1],0
same,Number of subjects with treatment-emergent AE: Psychiatric disorders,[1],0
same,Number of subjects with treatment-emergent AE: Retinal vein occlusion,[1],0
same,Number of subjects with treatment-emergent AE: Seasonal allergy,[1],0
same,Number of subjects with treatment-emergent AE: Vertigo,[1],1
same,Subjects with treatment-emergent AE: Cholelithiasis (%),[1],(2.5%)
same,Subjects with treatment-emergent AE: Ear and labyrinth disorders (%),[1],(2.5%)
same,Subjects with treatment-emergent AE: Hepatobiliary disorders (%),[1],(2.5%)
same,Subjects with treatment-emergent AE: Vertigo (%),[1],(2.5%)
same,Subjects with adverse event: Alanine aminotransferase increased,[2],0
same,Subjects with adverse event: Aspartate aminotransferase increased,[2],0
same,Subjects with adverse event: Bronchitis,[2],0
same,Subjects with adverse event: Meniscus injury,[2],0
same,Subjects with adverse event: Sinusitis,[2],0
same,Subjects with adverse event: Urinary tract infection,[2],0
same,Subjects with serious adverse event: Cerebrovascular accident,[2],0
same,Subjects with serious adverse event: Coronary artery disease,[2],0
same,Subjects with serious adverse event: Foot deformity,[2],0
same,Subjects with serious adverse event: Ligament injury,[2],0
same,Subjects with serious adverse event: Non-cardiac chest pain,[2],0
same,Subjects with serious adverse event: Tonsillar hypertrophy,[2],0
same,Subjects with serious adverse event: Uterine leiomyoma,[2],0
same,Subjects with serious adverse event: Ventricular dysfunction,[2],0
same,Subjects with AE leading to discontinuation: Alanine aminotransferase increased,"100 mg QD, Week 16-56",0
same,Subjects with AE leading to discontinuation: Aspartate aminotransferase increased,"100 mg QD, Week 16-56",0
same,Subjects with AE leading to discontinuation: Asthenia,"100 mg QD, Week 16-56",0
same,Subjects with AE leading to discontinuation: Gamma-glutamyltransferase increased,"100 mg QD, Week 16-56",0
same,Subjects with AE leading to discontinuation: Insomnia,"100 mg QD, Week 16-56",0
same,Subjects with AE leading to discontinuation: Investigations,"100 mg QD, Week 16-56",0
same,Subjects with AE leading to discontinuation: Proctalgia,"100 mg QD, Week 16-56",0
same,Subjects with AE leading to discontinuation: Psoriasis,"100 mg QD, Week 16-56",0
same,Subjects with AE leading to discontinuation: Psychiatric disorders,"100 mg QD, Week 16-56",0
same,Subjects with AE leading to discontinuation: Skin and subcutaneous tissue disorders,"100 mg QD, Week 16-56",0
same,Subjects with COVID-19 associated AE of interest: SARS-CoV-2 test positive,"100 mg QD, Week 16-56",0
same,Subjects with treatment-emergent AE: Alanine aminotransferase increased,"100 mg QD, Week 16-56",0
same,Subjects with treatment-emergent AE: Aspartate aminotransferase increased,"100 mg QD, Week 16-56",0
